Results reported in patent EP0184291B1, “Polyether antibiotic A80190” (ELI LILLY AND COMPANY, priority 1984, dated 1986).
Converted amounts (≈) assume the structure as drawn.

Columns and labels:
Mexican bean beetle = test: Insecticidal activity; format: in vivo; conditions: Epilachna varivestis; read-out: active at levels as low as
Excerpt: (§1) The A80190 compounds are also useful as insecticides and acaricides. For example, A80190 is active against the following insects as levels as low as the level indicated in parenthesis: mosquito larvae (<50 ppm), blowfly larvae (35 ppm), adult housefly (35 ppm), and Mexican bean beetle and southern armyworm (<100 ppm). A80190 is also active against mites such as two-spotted spider mite when applied at a rate as low as 25 ppm.

adult housefly = test: Insecticidal activity; format: in vivo; conditions: Musca domestica; read-out: active at levels as low as
Excerpt: as §1

southern armyworm = test: Insecticidal activity; format: in vivo; conditions: Spodoptera eridania; read-out: active at levels as low as
Excerpt: as §1

blowfly larvae = test: Insecticidal activity; format: in vivo; conditions: read-out: active at levels as low as
Excerpt: as §1

mosquito larvae = test: Insecticidal activity; format: in vivo; conditions: read-out: active at levels as low as
Excerpt: as §1

Eimeria tenella = test: In vitro tissue culture anticoccidial screen; format: cell-based; conditions: Concentration 5 µg/ml
Excerpt: Anticoccidial activity is an important property of the A80190 compounds. Table VIII summarizes the results of an in vitro tissue culture screen of A-80190 compounds vs. Eimeria tenella.

[1] = tested on: Clostridium septicum 1128; test: Agar-dilution assay, anaerobic bacteria; format: cell-based; conditions: 24-hour incubation
Experimental: (§2) One important aspect of the antimicrobial activity of A80190 compounds relates to their activity against anaerobic bacteria. The minimal inhibitory concentrations (MIC's) at which A80190 inhibits various anaerobic bacteria, as determined by standard agar-dilution assay, are summarized in Table VII. End points were read after 24-hour incubation.

[2] = tested on: Bacteroides fragilis 1877; test: Agar-dilution assay, anaerobic bacteria; format: cell-based; conditions: 24-hour incubation
Experimental: as §2

[3] = tested on: Bacteroides corrodens 1874; test: Agar-dilution assay, anaerobic bacteria; format: cell-based; conditions: Eikenella corrodens, 24-hour incubation
Experimental: as §2

[4] = tested on: Bacteroides melaninogenicus 2736; test: Agar-dilution assay, anaerobic bacteria; format: cell-based; conditions: 24-hour incubation
Experimental: as §2

[5] = tested on: Peptostreptococcus anaerobius 1428; test: Agar-dilution assay, anaerobic bacteria; format: cell-based; conditions: 24-hour incubation
Experimental: as §2

[6] = tested on: Clostridium difficile 2994; test: Agar-dilution assay, anaerobic bacteria; format: cell-based; conditions: Clostridioides difficile, 24-hour incubation
Experimental: as §2

Petococcus prevoti 1281 = test: Agar-dilution assay, anaerobic bacteria; format: cell-based; conditions: 24-hour incubation
Experimental: as §2

[7] = tested on: Eimeria acervulina (Lilly strain 59), Eimeria maxima (strain FS-177) and Eimeria tenella (strain FS-155); test: Coccidiosis test in broiler chicks, A80190 with nicarbazin (Test 1); format: in vivo; conditions: Nicarbazin 0 p.p.m. in ration
[8] = tested on: Clostridium perfringens 81; test: microbe, parasite or virus in culture; format: cell-based; conditions: Clostridium perfringens, 81, 24 h
pKa determination = format: physicochemical; conditions: 66% aqueous dimethylformamide; free acid form
Excerpt: Antibiotic A80190 has been assigned structure 1 based on X-ray crystallographic studies.

## CC[C@@H](O)[C@]1(C)C[C@H](C)[C@@](O)([C@H]2C[C@H](C)[C@H]([C@]3(C)C[C@@H](O[C@H]4CC[C@H](OC)[C@@H](C)O4)[C@H]([C@@H]4CC[C@@]5(O[C@H]([C@@H](C)[C@@H](OC)[C@H](C)C(=O)O)[C@H](C)[C@@H](OC)[C@H]5C)O4)O3)O2)O1 [Example A80190]
Mexican bean beetle
  minimal effective concentration: < 100 µg/mL
Adult housefly
  minimal effective concentration: 35 µg/mL
Southern armyworm
  minimal effective concentration: < 100 µg/mL
Blowfly larvae
  minimal effective concentration: 35 µg/mL
Mosquito larvae
  minimal effective concentration: < 50 µg/mL
Eimeria tenella
  Activity vs. Eimeria tenella In Vitro: C^a
[1]
  MIC: < 0.5 µg/mL
[2]
  MIC: > 128 µg/mL
[3]
  MIC: > 128 µg/mL
[4]
  MIC: > 128 µg/mL
[5]
  MIC: 1 µg/mL (≈ 1.21 µM)
[6]
  MIC: < 0.5 µg/mL
Petococcus prevoti 1281
  MIC: < 0.5 µg/mL
[7]; A80190 4 p.p.m.
  CECAL LESION SCORES: 2.63
  INTESTINAL LESION SCORES: 8.63
  WEIGHT GAIN: 236 grams/per chicken
[7]; A80190 8 p.p.m.
  CECAL LESION SCORES: 1.75
  INTESTINAL LESION SCORES: 5.94
  WEIGHT GAIN: 265 grams/per chicken
[7]; A80190 12 p.p.m.
  CECAL LESION SCORES: 1.19
  INTESTINAL LESION SCORES: 3.50
  WEIGHT GAIN: 251 grams/per chicken
[7]; A80190 16 p.p.m.
  CECAL LESION SCORES: 0.19
  INTESTINAL LESION SCORES: 1.19
  WEIGHT GAIN: 272 grams/per chicken
[7]; A80190 20 p.p.m.
  CECAL LESION SCORES: 0.0
  INTESTINAL LESION SCORES: 0.0
  WEIGHT GAIN: 261 grams/per chicken
[8]
  MIC: < 0.5 µg/mL
pKa determination
  pKa: 6.2
